In patent publication US6492329B1, “Cytokine and hemopoietic factor endogenous production enhancer and methods of use thereof” (Novelos Therapeutics, Inc., priority 1995, dated 2002):

Legend:
[1] = system: normal human lymphocytes; test: Proliferation/apoptosis of normal human lymphocytes (cell number per well, flow cytofluorometry); assay type: cell-based
[2] = system: rat embrional fibroblasts (REF); test: Number of REF cells throughout 72-hr incubation; assay type: cell-based
Method: (§1) To this end, these substances had been incubated for 72 hours with cells of rat embrional fibroblasts (REF) and the same cells, transformed with adenoviral E1A gene in complementation with ras-oncogene (e-ras cell line). Subsequent evaluation of the cellularity of experimental samples was carried out by counting the quantity of cell per milliliter (for REF cell line) or clones in dish (for e-ras cell line).
(§2) Cells were cultivated on DMEM medium supplemented with 10% fetal calf serum and […] gentamicin. Cultivation was carried out in Petri dishes.
(§3) REF cells was cultivated with initial density of 800 000 cell per mL, evaluation of the cellularity was performed at 0, 24, 48 and 72 hours of incubation with the test articles.
(§4) For the test-system for estimation of apoptosis regulation UV-induced cell death was triggered in a dose of 4 Dj. Test articles were added immediately after irradiation. Then, the quantity of cell per milliliter (for REF cell line) or clones in dish (for e-ras cell line) were monitored every 24 hours. For determination of DNA-fragmentation the electrophoresis in agarose gel was used at standard settings.

[3] = system: e-ras cells after UV-irradiation; test: Number of clones of e-ras cells after UV-irradiation; assay type: cell-based, rat
Method: as §1, §2
(§5) E-ras cells were seeded at a cell density of 300 cells per 5 cm dish. 7 days after growth of e-ras cells had been started the quantity of clones was evaluated and the test articles were added into the dishes.
as §4

[4] = system: leukemia P388 cells; test: Leukemia P388 in mice: ascitic fluid and survival (Example 14); settings: for Accumulation of ascitic (weight gain, %): leukemia P388
Method: (§6) An influence of 7 day course of test article daily administration was studied in respect of tumor progression, which was estimated using the two integral indices: pace of mouse weight gain due to accumulation of ascitic fluid, and by animal mean survival time after inoculation.
(§7) The study was carried out on DBA/2 mice weighing 18-21 g. First, tumor cell passage was performed using 6 animals for each cell line. For this, cells kept at the temperature of the liquid nitrogen were de-frozen and adjusted to the concentration of 5×10^6 cells/mL by sterile Hanks' solution. Then, 6 mice were intra peritoneally inoculated with 0.2 mL of each line cellular suspension.
(§8) Ascitic fluid was collected 6 days after the inoculation with L1210 cells, 8 days after the inoculation with P388 ones and 18 days after inoculation with Erlich adenocarcinoma cells. Thus obtained, the samples of passaged tumor cells were used for the main experiments. The fluid liquid was dissolved by sterile Hanks' solution so that cell concentration be 5×10^6 cells/mL for P388 cells and Erlich adenocarcinoma cells, 5×10^5 cells/mL for L1210 cells.
(§9) Eleven groups of animals with no less than 15 mice each were formed for experiments with either tumor cell line. Mice were inoculated with 0.2 mL of resultant cell suspensions per mouse (10^6 P388 and Erlich adenocarcinoma cells/mouse, and 10^5 L1210 cells/mouse). 24 hours after the tumor cells inoculation, animals were given the first injections of the test articles or vehicles. The test article injections were made daily till the 14th day of the experiment or till the animal death. The volume of solutions injected comprised 0.01 mL/g body weight.
(§10) #1—intact animals receiving imitation of tumor cell inoculation (injection of normal saline) which further were treated with normal saline throughout the entire experiment;
(§11) #2—control animals, inoculated with tumor cells, which further were treated with test article vehicle (normal saline);

[5] = system: e-ras cell line (REF transformed with E1A and ras-oncogene); test: Number of clones of e-ras cells throughout 72-hr incubation; assay type: cell-based, rat
Method: as §1, §2, §5, §4

[6] = system: leukemia P388 cells; test: Leukemia P388 in mice: serum cytokines, ascitic fluid, survival (Example 5); settings: for Accumulation of ascitic fluid (weight gain) / Concentration in serum: IFNα / Concentration in serum: IL-1 / Concentration in serum: IL-2 / Concentration in serum: IL-6 / Concentration in serum: TNFα: P388 mice
Method: (§12) An influence of 7 day course of test article daily administration was studied in respect of variations of serum cytokine levels (IL-1, IL-2, IL-6, IFNα, TNF). In parallel, the tumor progression was estimated using the two integral indices: pace of mouse weight gain due to accumulation of ascitic fluid, and by animal mean survival time after inoculation.
(§13) The study was carried out on DBA/2 mice weighing 18-21 g. First, tumor cell passage was performed using 6 animals for each cell line. For this, cells kept at the temperature of the liquid nitrogen were de-frozen and adjusted to the concentration of 5×10^6 cells/mL by sterile Hanks' solution. Then, 6 mice were intraperitoneally inoculated with 0.2 mL of each line cellular suspension.
(§14) Ascitic fluid was collected 6 days after the inoculation with L1210 cells and 8 days after the inoculation with P388 ones. Thus obtained, the samples of passaged tumor cells were used for the main experiments. The fluid liquid was dissolved by sterile Hanks' solution so that cell concentration be 5×10^6 cells/mL for P388 cells and 5×10^5 cells/mL for L1210 cells.
(§15) Nine groups of animals with no less than 15 mice each were formed for experiments with either tumor cell line. Mice were inoculated with 0.2 mL of resultant cell suspensions per mouse (10^6 P388 cells/mouse, and 10^5 L1210 cells/mouse). 24 hours after the tumor cells inoculation. animals were given the first injections of the test articles or vehicles. The test article injections were made daily till the 14th day of the experiment or until the animal's death. The volume of solutions injected comprised 0.01 mL/g body weight.
as §10, §11

[7] = system: rat embrional fibroblasts (REF) after UV-irradiation; test: Number of REF cells after UV-irradiation; assay type: cell-based
Method: as §1, §2, §3, §4

[8] = system: HL-60 cells; test: Proliferation/apoptosis of HL-60 tumor cells (cell number per well, flow cytofluorometry)
Method: Subsequent evaluation of the cell cycle parameters was carried out by the flow cytofluorometry technique.
A mononuclear fraction of blood leukocytes were obtained by centrifugation in gradient of fikoll-metrizoat (Histopaque, Sigma). […] Cell viability was estimated by the Trypan blue exclusion method, then the cell suspension was placed into wells of 96-well microtiter plates—200,000 cells per well. […] Cultivation was carried out in closed flasks, the medium volume was 12 mL, it was changed every four days by centrifugation. The nature of the cells growth was suspensive. […] 50 μL of each test solution were added to one or the other cell culture and thereafter cells were cultivated for 24-96 hours. Then, they were tested by the flow cytofluorometry to estimate DNA content in the cell nuclei. In case of apoptosis-like cellular death, the portion of cell nuclei with normal content of DNA became reduced, while the portion of cell nuclei containing abnormally small DNA quantity became larger.
The analysis procedure was the following: after incubation completion, cells were centrifuged and transferred to a standard phosphate isotonic buffer pH 7.4, containing RNA-ase A (20 μg/mL), ethidium bromide (fluorometric indicator for double stranded nucleic acid. 10 μg/mL) and MgCl2 (5 mM). After the cells were disintegrated by nonionic detergent Triton X-100 (final concentration 0.1%). The suspension of cell nuclei thus obtained was analyzed by flow cytofluorometry with an argon laser as a source of light (wave length 488 nm). The red fluorescence due to DNA bound ethidium bromide was taken to be the measure of DNA content in the cell nuclei.

[9] = system: Erlich adenocarcinoma cells; test: Erlich adenocarcinoma in mice: ascitic fluid and survival (Example 14); settings: for Accumulation of ascitic (weight gain, %): Erlich adenocarcinoma
[10] = system: leukemia L1210 cells; test: Leukemia L1210 in mice: ascitic fluid and survival (Example 14); settings: for Accumulation of ascitic (weight gain, %): leukemia L1210
Method: as §6, §7, §8, §9, §10, §11

[11] = system: leukemia L1210 cells; test: Leukemia L1210 in mice: serum cytokines, ascitic fluid, survival (Example 5); settings: for Accumulation of ascitic fluid (weight gain) / Concentration in serum: IFNα / Concentration in serum: IL-1 / Concentration in serum: IL-2 / Concentration in serum: IL-6 / Concentration in serum: TNFα: L1210 mice
Method: as §12, §13, §14, §15, §10, §11

## NCCSSCCN [0.1% cystamine, 2,2′-Dithio-bis[ethylamine]]
[1]; 24 hours incubation
  number of normal lymphocytes per well: 30 ± 2 × 10^4 cells
[1]; 48 hours incubation
  number of normal lymphocytes per well: 72 ± 4 × 10^4 cells
[1]; 72 hours incubation
  number of normal lymphocytes per well: 122 ± 9 × 10^4 cells
[1]; 96 hours incubation
  number of normal lymphocytes per well: 196 ± 11 × 10^4 cells
[2]; 0 hours of incubation
  number of REF cells (M ± m): 822 ± 14 × 10^3 cells
[2]; 24 hours of incubation
  number of REF cells (M ± m): 1523 ± 11 × 10^3 cells
[2]; 48 hours of incubation
  number of REF cells (M ± m): 2486 ± 34 × 10^3 cells
[2]; 72 hours of incubation
  number of REF cells (M ± m): 5048 ± 126 × 10^3 cells
[3]; 0 hours
  number of clones of e-ras cells after UV-irradiation (M ± m): 276 ± 4
[3]; 24 hours
  number of clones of e-ras cells after UV-irradiation (M ± m): 181 ± 4
[3]; 48 hours
  number of clones of e-ras cells after UV-irradiation (M ± m): 111 ± 6
[3]; 72 hours
  number of clones of e-ras cells after UV-irradiation (M ± m): 108 ± 3
[4]; number of injection 0
  Accumulation of ascitic (weight gain, %): 0.4 ± 0.3%
[4]; number of injection 3
  Accumulation of ascitic (weight gain, %): 5.2 ± 0.6%
[4]; number of injection 7
  Accumulation of ascitic (weight gain, %): 18.8 ± 1.1%
[4]; mice inoculated with leukemia P388 cells
  Mean survival time: 20.2 ± 0.3
[5]; 0 hours of incubation
  number of clones of e-ras cells (M ± m): 276 ± 4
[5]; 24 hours of incubation
  number of clones of e-ras cells (M ± m): 281 ± 4
[5]; 48 hours of incubation
  number of clones of e-ras cells (M ± m): 271 ± 6
[5]; 72 hours of incubation
  number of clones of e-ras cells (M ± m): 258 ± 3
[6]; 0 injections
  Accumulation of ascitic fluid (weight gain): 0.67 ± 0.22%
  Concentration in serum: IFNα: 107 ± 8.06 pg/mL
  Concentration in serum: IL-1: 30.0 ± 4.02 pg/mL
  Concentration in serum: IL-2: 14.9 ± 2.05 pg/mL
  Concentration in serum: IL-6: 72.7 ± 9.10 pg/mL
  Concentration in serum: TNFα: 80.5 ± 7.14 pg/mL
[6]; 3 daily injections
  Accumulation of ascitic fluid (weight gain): 6.0 ± 0.49%
  Concentration in serum: IFNα: 216. ± 19.08 pg/mL
  Concentration in serum: IL-1: 41.5 ± 5.81 pg/mL
  Concentration in serum: IL-2: 15.25 ± 1.80 pg/mL
  Concentration in serum: IL-6: 184.0 ± 15.6 pg/mL
  Concentration in serum: TNFα: 204. ± 16.1 pg/mL
[6]; 7 daily injections
  Accumulation of ascitic fluid (weight gain): 19.9 ± 1.67%
  Concentration in serum: IFNα: 315. ± 9.80 pg/mL
  Concentration in serum: IL-1: 22.3 ± 3.0 pg/mL
  Concentration in serum: IL-2: 20.18 ± 2.50 pg/mL
  Concentration in serum: IL-6: 170.6 ± 14.3 pg/mL
  Concentration in serum: TNFα: 220. ± 19.1 pg/mL
[6]; mice inoculated with leukemia P388 cells, daily injections till day 14 or death
  Mean survival time: 9.93 ± 0.27
[7]; 0 hours
  number of REF cells after UV-irradiation (M ± m): 822 ± 14 × 10^3 cells
[7]; 24 hours
  number of REF cells after UV-irradiation (M ± m): 523 ± 11 × 10^3 cells
[7]; 48 hours
  number of REF cells after UV-irradiation (M ± m): 246 ± 34 × 10^3 cells
[7]; 72 hours
  number of REF cells after UV-irradiation (M ± m): 208 ± 26 × 10^3 cells
[8]; 24 hours incubation
  number of HL-60 cells per well: 112 ± 10 × 10^4 cells
[8]; 48 hours incubation
  number of HL-60 cells per well: 182 ± 9 × 10^4 cells
[8]; 72 hours incubation
  number of HL-60 cells per well: 465 ± 11 × 10^4 cells
[8]; 96 hours incubation
  number of HL-60 cells per well: 618 ± 19 × 10^4 cells
[9]; number of injection 0
  Accumulation of ascitic (weight gain, %): 0.6 ± 0.2%
[9]; number of injection 3
  Accumulation of ascitic (weight gain, %): 9.2 ± 0.8%
[9]; number of injection 7
  Accumulation of ascitic (weight gain, %): 25.8 ± 1.7%
[9]; mice inoculated with Erlich adenocarcinoma cells
  Mean survival time: 10.2 ± 0.8
[10]; number of injection 0
  Accumulation of ascitic (weight gain, %): 0.42 ± 0.3%
[10]; number of injection 3
  Accumulation of ascitic (weight gain, %): 8.2 ± 0.6%
[10]; number of injection 7
  Accumulation of ascitic (weight gain, %): 24.8 ± 2.1%
[10]; mice inoculated with leukemia L1210 cells
  Mean survival time: 10.2 ± 0.8
[11]; 0 injections
  Accumulation of ascitic fluid (weight gain): 0.47%
  Concentration in serum: IFNα: 115.0 pg/mL
  Concentration in serum: IL-1: 36.0 pg/mL
  Concentration in serum: IL-2: 16.9 pg/mL
  Concentration in serum: IL-6: 63.0 pg/mL
  Concentration in serum: TNFα: 88.6 pg/mL
[11]; 3 daily injections
  Accumulation of ascitic fluid (weight gain): 5.93%
  Concentration in serum: IFNα: 200. pg/mL
  Concentration in serum: IL-1: 47.50 pg/mL
  Concentration in serum: IL-2: 17.30 pg/mL
  Concentration in serum: IL-6: 70.0 pg/mL
  Concentration in serum: TNFα: 185.0 pg/mL
[11]; 7 daily injections
  Accumulation of ascitic fluid (weight gain): 21.17%
  Concentration in serum: IFNα: 137.0 pg/mL
  Concentration in serum: IL-1: 28.0 pg/mL
  Concentration in serum: IL-2: 22.8 pg/mL
  Concentration in serum: IL-6: 155.0 pg/mL
  Concentration in serum: TNFα: 213.0 pg/mL
[11]; mice inoculated with leukemia L1210 cells, daily injections till day 14 or death
  Mean survival time: 9.53 ± 0.18
